Earlier results in patent US4018912A, “Tripeptide derivatives with central nervous system activity and preparation thereof” (Ayerst McKenna and Harrison Ltd., priority 1975, dated 1977).
Read-outs that look alike come from different tables or passages of the source.

Experiments:
[1] = system: effects of L-DOPA; settings: literature (Plotnikoff et al. 1971; Friedman et al. 1973)
[2] = in vivo
[3] = system: effects of oxotremorine; settings: literature (Plotnikoff et al. 1972)
[4] = system: sedative effects of deserpidine; settings: monkeys; literature (Plotnikoff et al. 1973)
[5] = system: sedative effects of deserpidine; settings: mice; literature (Plotnikoff et al. 1973)
[6] = prior art; due to rapid inactivation in the mammalian body

H-L-prolyl-L-leucyl-glycinamide [H--Pro--Leu--Gly--NH2]
potentiation of the behavioral effects of L-DOPA [1]: potentiates the behavioral effects of (3,4-dihydroxyphenyl)-L-alanine (L-DOPA)
first step in the inactivation [2]: proteolytic cleavage of the Pro-Leu bond with formation of proline and leucyl-glycinamide
antagonism of the effects of oxotremorine [3]: antagonizes the effects of oxotremorine
reversal of the sedative effects of deserpidine [4]: reverses the sedative effects of deserpidine
reversal of the sedative effects of deserpidine [5]: reverses the sedative effects of deserpidine
duration of action [6]: short duration of action
